The target in experiment [1] is full-length SHP2-E76K oncogenic mutant (Homo sapiens (Human), UniProt Q06124, E76K). Kind of experiment: DiFMUP fluorescence intensity phosphatase inhibition assay, SHP2-E76K. The format is biochemical. The source says:
(§1) To test the synthesized compounds for their potential to inhibit SHP2 activity, a fluorescence intensity-based assay using 6,8-difluoro-4-methylumbelliferyl phosphate (DiFMUP) as the substrate was adapted for three recombinant SHP2 constructs: 1) the SHP2 catalytic domain (SHP2cat; residues 248-527), 2) the full-length SHP2-E76K oncogenic mutant, and 3) the full-length SHP2 wild-type (SHP2-WT). The recombinant SHP2 proteins were expressed and purified. A dually phosphorylated peptide derived from the insulin receptor substrate 1 (IRS-1) served as a surrogate binding protein and was used to activate SHP2-WT. […] Michaelis-Menten experiments to determine the DiFMUP Michaelis-Menten constant (Kmn) for each SHP2 construct were performed and yielded the following values: SHP2-WT, Km=60 μM; SHP2-E76K, Km=20 μM; SHP2cat, Km=20 μM. Relative maximum rates (Vmax) of the DiFMUP reactions were as follows: SHP2-WT, Vmax=871 AFU/min; SHP2-E76K, Vmax, =2730 AFU/min; SHP2cat, Vmax=2912 AFU/min. IC50 values for each compound were determined from initial rates in 10-point dose-response assays using DiFMUP at a concentration corresponding to its Km value for the respective SHP2 construct.
(§2) SHP2 inhibitors were tested at room temperature (RT) in a 384-well plate format standard phosphatase fluorescence intensity assay using DiFMUP (Invitrogen/Thermo Fisher Scientific, Carlsbad, CA) as a substrate and a total reaction volume of 25 μL. SHP2 inhibitors or vehicle (DMSO) were spotted in triplicate into a black Greiner FLUOTRAC™ 200 384-well microplate (#781076, Greiner) for a 10-point dose-response assay using an Echo®555 Liquid Handler (Labcyte, Inc., San Jose, CA). PTP working solutions were prepared at a 0.625 nM concentration (for a final concentration of 0.5 nM) in buffer containing 50 mM Bis-Tris pH 6.0, 50 mM NaCl, 5 mM DTT, and 0.01% Tween® 20. Prior to the assay, a dually phosphorylated insulin receptor substrate 1 (IRS-1) peptide [625 nM (500 nMfinal) (30)] was added to full-length WT SHP2 working solutions and incubated for 20 min. DiFMUP working solutions at 5× final concentration were prepared in 50 mM Bis-Tris pH 6.0, 50 mMNaCl, and 0.01% Tween 20. 20 μL of PTP working solution was dispensed into the microplate and incubated with inhibitor for 20 min at RT. […] The reaction was initiated by addition of 5 μL DiFMUP working solutions. Fluorescence intensity was measured in kinetic mode (every minute for 7 or 10 min) using a Tecan Spark® Multimode Microplate Reader (Tecan, Groedig, Austria) with an excitation wavelength of 360 nm and an emission wavelength of 460 nm. The initial rates were determined from the linear progression curves of the PTP reaction. The nonenzymatic hydrolysis of the substrate was corrected by using a control without addition of enzyme. IC50 values were calculated from the corrected initial rates by nonlinear regression using the program GraphPad Prism (GraphPad Software, Inc., San Diego, CA) Version 8. Dose-response inhibition assays of SHP2cat using the substrate OMFP were performed similarly as described above for DiFMUP. OMFP was used at a concentration corresponding to its Km value for SHP2cat (50 μM final). Fluorescence intensity was measured in kinetic mode (every minute for 10 min) using a Tecan Spark Multimode Microplate Reader with an excitation wavelength of 485 nm and an emission wavelength of 535 nm. Initial rates were determined and IC50 vales calculated as described above.

Experiment [2] concerns the target full-length SHP2 wild-type (SHP2-WT) (Homo sapiens (Human), UniProt Q06124). The experiment can be described thus: DiFMUP fluorescence intensity phosphatase inhibition assay, SHP2-WT activated with IRS-1 peptide. The format is biochemical. Particulars: DiFMUP at Km (60 μM), IRS-1 peptide activated.
Text: as §1, §2

Setting [3] is: DiFMUP at Km (20 μM), 10-point dose-response, read-out: SHP2-E76K IC50.

This is an account of results in patent publication US20250026741A1, “INHIBITORS OF THE ONCOGENIC SHP2 PHOSPHATASE AND USES THEREOF” (Sanford Burnham Prebys Medical Discovery Institute, priority 2021, published 2025).

Read-outs that look alike come from different tables or passages of the source. Some results are limits rather than exact numbers.

full-length SHP2 wild-type (SHP2-WT), sequence (Q06124 whole entry, other chains not shown): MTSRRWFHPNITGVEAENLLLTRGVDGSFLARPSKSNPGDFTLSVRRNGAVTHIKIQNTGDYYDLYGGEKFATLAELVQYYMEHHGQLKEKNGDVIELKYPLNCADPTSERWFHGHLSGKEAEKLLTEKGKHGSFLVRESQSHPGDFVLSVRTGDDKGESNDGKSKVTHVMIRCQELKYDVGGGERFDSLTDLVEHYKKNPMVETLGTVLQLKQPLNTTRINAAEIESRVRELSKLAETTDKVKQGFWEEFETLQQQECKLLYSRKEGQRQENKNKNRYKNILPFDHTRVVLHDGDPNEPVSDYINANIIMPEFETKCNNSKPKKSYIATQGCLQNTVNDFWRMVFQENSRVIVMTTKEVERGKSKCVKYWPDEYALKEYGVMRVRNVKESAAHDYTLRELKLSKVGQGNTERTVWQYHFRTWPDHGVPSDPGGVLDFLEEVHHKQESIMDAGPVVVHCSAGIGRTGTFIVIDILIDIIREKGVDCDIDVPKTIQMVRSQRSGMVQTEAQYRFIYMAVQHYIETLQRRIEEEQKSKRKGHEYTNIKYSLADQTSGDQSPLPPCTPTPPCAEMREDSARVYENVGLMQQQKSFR
full-length SHP2-E76K oncogenic mutant, sequence (Q06124 whole entry E76K, the tested form may be a part): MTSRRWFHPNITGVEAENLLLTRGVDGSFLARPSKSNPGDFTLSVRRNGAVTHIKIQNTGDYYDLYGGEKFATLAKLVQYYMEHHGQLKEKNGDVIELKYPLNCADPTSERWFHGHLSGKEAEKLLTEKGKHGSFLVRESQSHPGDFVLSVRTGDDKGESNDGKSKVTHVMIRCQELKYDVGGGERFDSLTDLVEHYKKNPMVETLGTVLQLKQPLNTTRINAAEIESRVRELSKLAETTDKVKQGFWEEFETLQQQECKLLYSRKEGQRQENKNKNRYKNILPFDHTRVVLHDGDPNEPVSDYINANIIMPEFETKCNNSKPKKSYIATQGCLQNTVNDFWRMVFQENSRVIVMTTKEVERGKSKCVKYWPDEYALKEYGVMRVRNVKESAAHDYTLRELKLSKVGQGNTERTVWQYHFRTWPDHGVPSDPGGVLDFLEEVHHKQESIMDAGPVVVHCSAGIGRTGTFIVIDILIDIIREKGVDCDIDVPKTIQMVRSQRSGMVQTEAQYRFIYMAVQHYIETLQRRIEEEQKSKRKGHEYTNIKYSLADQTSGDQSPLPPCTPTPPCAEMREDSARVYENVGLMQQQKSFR

Regarding `N#Cc1cc(-c2ccc(/C=C3\Sc4ccccc4C3=O)o2)ccc1O` [#05, (Z)-2-Hydroxy-5-(5-((3-oxobenzo[b]thiophen-2(3H)-ylidene)methyl)furan-2-yl)benzonitrile], the half-maximal inhibitory concentration (IC50) in experiment [1] (setting [3]) and in experiment [2] was 1000 to 20000 nM each time.

On to `Nc1ccc(NC(=O)c2cc(-c3ccc(/C=C4\Sc5ccccc5C4=O)o3)ccc2O)cc1` [#01, (Z)—N-(4-Aminophenyl)-2-hydroxy-5-(5-((3-oxobenzo[b]thiophen-2(3H)-ylidene)methyl)furan-2-yl)benzamide], for which the IC50 in experiment [1] (setting [3]) is at most 1000 nM; in experiment [2] it was 1000 to 20000 nM.

Turning to `O=C(Nc1ccccc1)c1cc(-c2ccc(/C=C3\Sc4ccccc4C3=O)o2)ccc1O` [#02, (Z)-2-hydroxy-5-(5-((3-oxobenzo[b]thiophen-2(3H)-ylidene)methyl)furan-2-yl)-N-phenylbenzamide], the IC50 was 1000 to 20000 nM in experiment [1] (setting [3]); 1800 nM in experiment [1] (IC50 against SHP2-E76K, in vitro phosphatase inhibition assay, screening hit, heading: IC50 against SHP2-E76K); 1000 to 20000 nM in experiment [2].

One may read the IC50 as the midpoint of a concentration-inhibition curve.
